Measurements from patent US7855076B2, “Use of discoidin domain receptor 1 (DDR1) and agents that affect the DDR1/collagen pathway” (The United States of America as represented by the …, priority 2002, dated 2010).

B1: IFN-γ: human recombinant interferon-γ (protein, UniProt P01579 24-161, looked up)
Interferon gamma: QDPYVKEAENLKKYFNAGHSDVADNGTLFLGILKNWKEESDRKIMQSQIVSFYFKLFKNFKDDQSIQKSVETIKEDMNVKFFNSNKKKRDDFEKLTNYSVTDLNVQRKAIHELIQVMAELSPAAKTGKRKRSQMLFRG

Columns and labels:
Format in all cases: cell-based, human
[1] = test system: THP-1 cells; test: Cytokine and chemokine release from PMA-treated THP-1 cells by ELISA; details: DDR1b-overexpressing THP-1 cells, PMA, collagen-coated plates, 48 hours
Experimental: The production of DDR1a- or 1b-overexpressing THP-1 cells was previously described (Kamohara et al., FASEB J. 15:2724, 2001). Briefly, the human monocytic leukemic cell line, THP-1, was transduced with control retrovirus containing the vector only (mock-transduced) or retrovirus expressing DDR1a or DDR1b. THP-1 cells transduced by each virus were selected with G418, and cloned by limiting dilution. The cloned THP-1 cells were maintained in RPMI 1640 medium supplemented with 100 μg/ml gentamycin and 10% FCS (complete medium). Cells were plated at 1×10^6/ml and treated with PMA (10 nM) for variable times on uncoated or collagen-coated tissue culture plates for quantification of cytokine or chemokine release.
In addition, the concentration of MCP-1 in the culture supernatant of each cell line was measured by ELISA. The concentration of MCP-1 was measured in the Lymphokine Testing Laboratory, Clinical Services Program, SAIC-Frederick (Frederick, Md.) by using an enzyme-linked immunosorbent assay (ELISA) kit (R&D Systems, Minneapolis, Minn.) specific for the chemokine.
In addition, the concentrations of IL-1β, IL-8, and MIP-1α in the culture supernatants of each cell line were quantified by ELISA (FIG. 6). The concentration of IL-1β, IL-8, and MIP-1α were measured in the Lymphokine Testing Laboratory, Clinical Services Program, SAIC-Frederick (Frederick, Md.) by using enzyme-linked immunosorbent assay (ELISA) kits (R&D Systems, Minneapolis, Minn.) specific for each human cytokine and chemokine. […]

[2] = test system: NF-κB; test: NF-κB luciferase reporter assay in THP-1 cells; details: DDR1b-overexpressing cells, 12 hours
Experimental: For the results shown in FIG. 7A, mock-transduced or DDR1b-overexpressing THP-1 cells were transfected with 10 μg of the NF-κB-Luc plasmid and 5 μg of pSV-β-galactosidese plasmid DNA (Promega, Madison, Wis.) per 100-mm tissue culture plate using Effectene Transfection Reagent (Qiagen, Valencia, Calif.), according to the manufacture's protocol. After a 12-hour incubation, cells were rinsed with phosphate buffered saline (PBS) and then incubated with 10 nM PMA on collagen-coated plates in the presence of absence of SB203580, PD98059, CAPE or dimethlysulfoxide (DMSO) for another 12 hours. Cells were collected and lysed using the Reporter Lysis Buffer (Promega, Madison, Wis.), and luciferase activity and β-galactosidase activities were measured according to the protocol provided by the manufacturer. The resulting luciferase activity was corrected based on the β-galactosidase activity in the same cell extract. For the results shown in FIG. 7B, DDR1b-overexpressing THP-1 cells were transfected with 10 μg of the pGLM-ENH, or pGLM-MA1MA2 (Ueda et al., J. Bio. Chem. 272: 31092-9, 1997) and 5 μg of pSV-β-galactosidese plasmid DNA (Promega, Madison, Wis.) per 100-mm tissue culture plate using Effectene Transfection Reagent (Qiagen, Valencia, Calif.) according to the manufacture's protocol. […] Cells were collected and lysed using the Reporter Lysis Buffer (Promega, Madison, Wis.), and luciferase activity and β-galactosidase activities were measured according to the protocol provided by the manufacturer. […]
Mock-transduced or DDR1b-overexpressing THP-1 cells were transfected with 10 μg of the NF-κB-Luc plasmid, pGL-ENH, or pGL-MA1MA2 and 5 μg of pSV-β-galactosidase plasmid DNA (Promega, Madison, Wis.) per 100-mm tissue culture plate using Effectene Transfection Reagent (Qiagen, Valencia, Calif.) according to the manufacture's protocol. […] Luciferase activity and β-galactosidase activities were measured according to the protocol provided by the manufacturer. […]

[3] = test system: NF-κB; test: Nuclear translocation of NF-κB by EMSA; details: DDR1b-overexpressing cells on collagen-coated plates
Experimental: Nuclear translocation of NF-κB was examined by EMSA. Nuclear extracts were prepared by a method previously reported (Ueda et al., J. Biol. Chem. 272:31092, 1997), and aliquots were frozen at −80° C. For EMSA, end-labeled ^32P-oligonucleotide probes corresponding to the NF-KB binding site of the Ig κ-chain (5′-[…]-3′) (SEQ ID NO: 15) or MCP-1 (A2 site; 5′-[…]-3′) (SEQ ID NO: 16) gene were used. Each probe was incubated with 5 μg of nuclear extracts in 20 μl of binding cocktail (50 mM Tris-HCl, pH 7.4, 25 MM MgCl2, 0.5 mM DTT, 50% glycerol) at 4° C. for 15 minutes. The DNA-protein complexes were resolved on a 5% polyacrylanide gel. The dried gels were exposed to X-ray films.

[4] = test system: DDR1; test: Cell-surface DDR1 expression on PMN by flow cytometry; details: 24 hours
Experimental: PMN were incubated in presence of IFN-γ or GM-CSF for 24 hours and the expression of cell-surface DDR1 was measured by flow cytometry using an antibody raised against the extracellular domain of the receptor. One hundred thousand cells were suspended in 50 μl of cold PBS containing 0.1% NaN3, […] BSA and 200 μg/ml human IgG in a Falcon 2052, tube, and incubated for 10 minutes on ice. One μg of anti-DDR1 rabbit polyclonal antibody raised aginst the N-terminus of DDR1 (Transgenic, Inc., Kumamoto, Japan), or control mouse IgG was added to each tube and the cells were incubated for another 15 minutes on ice. The cells were washed with PBS, and then incubated with 1 μg of FITC-conjugated goat anti-mouse IgG for 15 minutes on ice. At the end of incubation, PI was added to each tube (100 μM). The cells were washed by PBS, and subsequently analyzed by using a FACS scan (Becton Dickinson). Dead cells, determined by the incorporation of PI, were gated out. Results were processed by using the Cellquest software (Becton Dickinson).

[5] = test system: DDR1 mRNA; test: DDR1 mRNA expression in PBMC by Northern blotting; details: 8 hours, TNF-α 5 ng/ml, IL-1β 10 ng/ml, IFN-γ 50 U/ml, GM-CSF 10 ng/ml, LPS 1 μg/ml, PHA 5 μg/ml
Experimental: PMN and PBMC were maintained at a density of 5×10^6 cells/ml in the complete medium in six-well tissue culture cluster (Coster, Cambridge, Mass.; 3 ml/well). Total RNA was extracted from each culture by using TRIZOL® Reagent. PolyA mRNA was purified on Oligotex columns (Qiagen, Valencia, Calif.). Northern blot analysis was performed as described (Yoshimura, J. Immunol. 150:5025, 1993), except that ULTRAhyb (Ambion) was used. A human DDR1 cDNA (757-bp) was obtained by PCR from a U-105 human glioblastoma cell line cDNA library and was ligated into the EcoRI/HindIII site of the pBluescript (Stratagene, La Jolla, Calif.). The sense primer was 5′-[…]-3′ (SEQ ID NO: 2; corresponding to residues between 68 and 87 in the nucleotide sequence of the trkE cDNA, GenBank accession number X74979) and the antisense primer was 5′-[…]-3′ (SEQ ID NO: 3; corresponding to residues between 805 and 824 in the nucleotide sequence of the trkE cDNA).
Freshly isolated PBMC expressed only a low level of DDR1 mRNA. The expression level was increased about eightfold when the cells were incubated in either RPMI 1640 or RPMI 1640 containing 10% FCS.

[6] = test system: DDR1 protein; test: DDR1 protein expression in leukocytes by immunoprecipitation and Western blotting
Experimental: For Western blot analysis, cell lysates were prepared from freshly isolated PBMC, PBMC incubated overnight in RPMI 1640 containing 10% FCS, and MCF-7 cells. Cells were lysed on ice for 20 minutes in a buffer containing 50 mM Hepes, 150 mM NaCl, 1% Triton X-100, 10% glycerol, 10 mM NaF, 1 mM ethylenediamine tetraacetic acid, […], 1 mg/ml leupeptin, 1 mM phenylmethylsulfonyl fluoride, 1 mg/ml aprotinin, and 1 mg/ml pepstatin A. The lysates were spun, and the supernatants were collected. The samples were incubated with approximately 20 μl packed volume of PGS for 1 hour at 4° C. After centrifugation, supernatants were collected, mixed with 1 μg/ml normal rabbit IgG or polyclonal anti-human DDR1 IgG, and incubated for 1 hour at 4° C. PGS (20 μl) was then added and incubated for another 1 hour. IgG-coupled PGS was washed with the buffer containing 50 mM Hepes, 150 mM NaCl, 0.1% Triton X-100, 10% glycerol buffer three times, and 20 μl double-strength sample buffer (20% glycerol, 6% sodium dodecylsulfate (SDS), 10% 2-mercaptoethanol) was added. The samples were boiled for 10, minutes. Eluted proteins were analyzed on 7.5% polyacrylamide gels by SDS polyacrylamide gel electrophoresis (SDS-PAGE) and transferred electrophoretically to nitrocellulose membranes (Amersham, Arlington Heights, Ill.) at 200 mA for 2 hours by a semi-dry system. The membranes were incubated with polyclonal anti-human DDR1 or anti-phosphotyrosine IgG, followed by sheep anti-mouse IgG coupled with horseradish peroxidase (Amersham). Peroxidase activity was visualized by the Enhanced Chemiluminescence Detection System (Amersham).
There was no detectable DDR1 protein in freshly isolated PBMC. DDR1 protein was detected clearly after overnight incubation in RPMI 1640 containing 10% FCS. In order to study the kinetics of DDR1 protein expression, PBMC were incubated with or withour addition of TNF-α (5 ng/ml), or GM-CSF (10 ng/ml) for 36 hours and cell lysates were prepared. Cell lysates were subjected to immunoprecipitation with anti-DDR1 IgG or control IgG. […]

[7] = test system: PMN; test: MCP-1 release by PMN (neutrophils), ELISA
Experimental: Human PMN and peripheral blood mononuclear cells (PBMC) were obtained from heparinized blood from human donors (10 units of heparin per ml of blood). One volume of 5% dextran (T-500 Pharmacia, Piscataway, N.J.) in phosphate buffered saline (PBS) was added to three volumes of blood in 50 ml polypropylene tubes. After a 40 minute incubation at room temperature, the leukocyte-rich plasma layer was removed and overlaid onto Lymphoprep in 50 ml tubes and the tubes were centrifuged at 800×g for 20 minutes at room temperature. PMN were separated from erythrocytes by lysis in 0.2% NaCl, washed in complete medium three times at 4° C. and resuspended in complete medium. PBMC contained in the PMN preparations obtained by this method were less than 0.5% by morphologic examination. Cell viability was higher than 98% by trypan blue staining.
A panel of cytokines was previously tested for their ability to induce MCP-1 production in PMN and it was reported that TNF-α and IFN-γ could cooperate to induce a high level of MCP-1 production (Yamashiro et al., J. Leukoc. Biol. 69:698, 2001). […] The majority of MCP-1 was released between 24 hours and 48 hours, showing a delayed kinetics of MCP-1 release. […] The effect of IFN-γ was dose-dependent.
To confirm that activation of DDR1 was responsible for the increased release of MCP-1 by PMN treated with IFN-γ and collagen, 513 anti-DDR1 Ab was used instead of collagen. The concentrations of MCP-1 were measured in the Lymphokine Testing Laboratory, Clinical Services Program, SAIC-Frederick (Frederick, Md.) with an ELISA kit (R&D Systems) specific for human MCP-1.

Molecule | collagen-induced up-regulation of IL-8 release [1] | collagen-induced up-regulation of MCP-1 release [1] | collagen-induced up-regulation of MIP-1α release [1] | increase in luciferase activity induced by PMA plus collagen [2] | increased NF-κB/DNA binding [3] | level of DDR1 expression [4] | level of DDR1 mRNA expression [5] | level of DDR1 protein expression ([6]; PBMC, TNF-α 5 ng/ml or GM-CSF 10 ng/ml, 36 hours) | DDR1 protein expression ([6]; monocytes) | MCP-1 production ([7]; PMN on collagen-coated plates with IFN-γ) | MCP-1 release ([7]; PMN, IFN-γ alone, uncoated plates) | dose dependence of effect on MCP-1 release ([7]; PMN, collagen-coated plates)
O=C(/C=C/c1ccc(O)c(O)c1)OCCc1ccccc1 [CAPE] | inhibited | inhibited | inhibited | completely inhibited | completely abolished |  |  |  |  |  |  | 
GM-CSF: human recombinant granulocyte macrophage-colony stimulating factor |  |  |  |  |  | slightly increased | further augmented | increased | increased |  |  | 
B1 |  |  |  |  |  | markedly increased | partially inhibited |  |  | potent synergistic effect | no significant MCP-1 release | dose-dependent
